Earlier results, collected in US10077293B2, “Antimicrobial peptide analogues derived from abalone (Haliotis discus) and antimicrobial pharmaceutical composition containing the same” (priority 2016, dated 2018).
Entries after “also recorded” stand apart in the source; their conditions may differ.

Assays:
[1] = test system: C. albicans; conditions: parent peptide, background statement; cited from earlier work
[2] = test system: Gram positive and Gram negative bacteria; conditions: background statement; cited from earlier work

## hdMolluscidin (AATKPKKAGAEAAPKKPAKKQTKKKPAKKAGGKKKPKRAGAKKAKK; listed as Haliotis discus) [antimicrobial peptide consisting of 46 amino acids, purified from the gill of abalone (Haliotis discus); parent peptide]
[1]
  antimicrobial activity against C. albicans (in words): little antimicrobial activity; also recorded: no activity
[2]
  antimicrobial activity against Gram positive and Gram negative bacteria (in words): strong antimicrobial activity
